Data from patent US20220000998A1 (priority 2019, published 2022).
No end group written: not given here.

Columns and labels:
[1] = mouse, plasma
B3Z T-cells = type: cell-based, murine

Sequence | half-life [1] | T-cell activation after BMDC incubation with antibody constructs and the peptide (B3Z T-cells)
FIGITELKKLESKINKVFAVGALKVPRNQDWLGVPRQL [UU-30] | 20 min | –
FIGITELKKLESKINKVFLEQLESIINFEKLAAAAAK [UU-05] | – | resulted in T-cell activation
LEQLESIINFEKLAAAAAK [UU-10, reference compound] | – | did not give rise to T-cell activation
